Test results from paper PMC5786788, “Antimicrobial Octapeptin C4 Analogues Active against Cryptococcus Species” (Antimicrobial Agents and Chemotherapy, 2018).
Where two headings read alike, the source gives them in different places. Where a SMILES comes first, the peptide text is derived from it. Bridges are numbered along the chain shown (N, C = ends). [ ]: non-standard residue; d: D form. The star is where a group is joined. Decanoyl(3R-OH) = CCCCCCC[C@@H](O)CC(=O)*; dDab = NCC[C@@H](N)C(=O)O; Dab = NCC[C@H](N)C(=O)O

Columns and labels:
C. neoformans H99 = conditions: for MICs against various Cryptococcus strains: H99: H99, 72 h; for MIC C. neoformans H99: Table 1, CLSI M27-A2, YNB medium, 35°C, no visible growth after 72 h, triplicate
Description: (§1) A broth microdilution assay was initially used to characterize the antifungal activity of the cyclic lipopeptides ([39], [40]). […] common pathogenic yeasts (C. albicans, C. glabrata, C. parapsilosis, C. neoformans, and C. gattii) and one pathogenic mold (A. fumigatus) were tested to determine the MIC for each compound (Table 1) using broth microdilution. […] The only structural difference between these molecules is the presence of a phenylalanine residue at position 6 in PMB; in PME a D-leucine is present at this location (Fig. 1).
(§2) Fungal strains were stored in 15% glycerol at −80°C until use. The fungal strains used were H99 (C. neoformans type strain) ([55]), cap59Δ (an acapsular H99 mutant) ([56]), ATCC 90113 (C. neoformans), MMRL 2651 (C. gattii), ATCC 90028 (Candida albicans), ATCC 90030 (Candida glabrata), ATCC 22019 (Candida parapsilosis), and ATCC MYA 3626 (Aspergillus fumigatus). Yeasts were cultured in liquid (1% yeast extract, 2% Bacto peptone, 2% glucose) or solid (additional 2% agar) yeast extract-peptone-dextrose (YPD) media at 30°C and maintained at 4°C for no longer than 2 weeks. A. fumigatus was prepared on potato dextrose medium at 30°C and maintained at 4°C for no longer than 2 weeks.
(§3) The MICs of the yeast strains for PMB, PME, and octapeptin C4 and its derivatives were determined in accordance with CLSI M27-A2 guidelines using YNB (Becton Dickinson, USA) medium supplemented with 10 mM ammonium sulfate and 2% glucose, a final inoculum concentration of 1.5 × 10^3 to 2.0 × 10^3 cells/ml, and incubation at 35°C for 72 h ([39]). […] The MICs for PMB, PME, and octapeptin C4 for A. fumigatus were determined in accordance with the CLSI M38-A2 guidelines ([40]) using synthetic RPMI 1640 medium (with glutamine, without bicarbonate and with phenol red; Life Technologies, USA). The final inoculum concentration was 0.4 × 10^4 to 5 × 10^4 cells/ml, with incubation at 35°C for 48 h. […] All assays were completed in triplicate. Fluconazole was used as a positive control where the MIC was determined at both 50% growth (in accordance with CLSI M27-A2 guidelines) and when there was a “no visible growth” reading.

C. neoformans ATCC 90113 = conditions: for MICs against various Cryptococcus strains: ATCC 90113: ATCC 90113, 72 h
Description: as §1, §2, §3

C. gattii MMRL 2651 = system: C. gattii MMRL 2651
Description: as §1, §2, §3

[1] = system: C. neoformans H99 (cap59Δ); format: cell-based, Cryptococcus neoformans; conditions: triplicate; for MICs against various Cryptococcus strains: H99 (cap59Δ): Table 2, values consistent across replicates
Source text: The different susceptibility of C. neoformans and C. gattii to PMB compared to other pathogenic fungi such as C. albicans and A. fumigatus has been postulated to arise from differences in cell surface composition ([38]). One key difference is the presence of a negatively charged polysaccharide capsule in Cryptococcus spp. proposed to concentrate the cationic lipopeptides at the cell surface ([38]). To examine this potential interaction for the octapeptin series, a C. neoformans cap59Δ mutant strain deficient in the secretion of negatively charged glucuronoxylomannan (an α1–3-linked mannan containing β1,2 and β1,4 xylosyl substitutions, as well as β1,2-linked glucuronyl residues) ([41], [42]), was tested against octapeptin C4 in comparison to PMB.
as §2, §3

C. albicans = assay: Broth microdilution MIC; format: cell-based, Candida albicans; conditions: ATCC 90028; CLSI M27-A2, YNB medium, 35°C, no visible growth after 48 h; triplicate
Description: as §1, §2
(§4) […] The final inoculum concentration was 0.4 × 10^4 to 5 × 10^4 cells/ml, with incubation at 35°C for 48 h. […] All assays were completed in triplicate. […]

C. parapsilosis = assay: Broth microdilution MIC; format: cell-based, Candida parapsilosis; conditions: ATCC 22019; CLSI M27-A2, YNB medium, 35°C, no visible growth after 48 h; triplicate
Description: as §1, §2, §4

A. fumigatus = assay: Broth microdilution MIC (CLSI M38-A2); format: cell-based, Aspergillus fumigatus; conditions: ATCC MYA 3626; CLSI M38-A2, RPMI 1640, 35°C, no visible growth after 48 h; triplicate
Description: as §1
Fungal strains were stored in 15% glycerol at −80°C until use. […]
The MICs of the yeast strains for PMB, PME, and octapeptin C4 and its derivatives were determined in accordance with CLSI M27-A2 guidelines using YNB (Becton Dickinson, USA) medium supplemented with 10 mM ammonium sulfate and 2% glucose, a final inoculum concentration of 1.5 × 10^3 to 2.0 × 10^3 cells/ml, and incubation at 35°C for 72 h ([39]). […] The MICs for PMB, PME, and octapeptin C4 for A. fumigatus were determined in accordance with the CLSI M38-A2 guidelines ([40]) using synthetic RPMI 1640 medium (with glutamine, without bicarbonate and with phenol red; Life Technologies, USA). […]

[2] = system: melanized and nonmelanized C. neoformans cells; assay: In vitro time course assay of melanization effect; format: cell-based, Cryptococcus neoformans; conditions: melanin induced on L-DOPA agar vs suppressed on YPD agar; PMB at 12.5 μM, octapeptin C4 at 1.56 μM; 0-8 h; two replicates
Description: (A) Melanin suppressed C. neoformans. (B) Melanin induced C. neoformans. […] Samples from each flask were taken 0, 1, 2, 4, 6, and 8 h after inoculation, spread onto a YPD plate, and incubated at 30°C for 3 days, at which time the colonies were counted. The data represent the means of two replicates, and the error bars represent the SEM.
Melanization was induced by growth on L-DOPA agar medium at 30°C and suppressed by growth on YPD agar medium at 30°C. Cells were grown over 3 days and collected, washed twice in PBS, and then resuspended in PBS at a density of 1,500 to 2,000 cells/ml. Aliquots of the cells were treated with PMB sulfate, octapeptin C4, and the octapeptin C4 derivatives P1L, P1D, P4, P3, P4L, P4D, P5, P6, P7, and P8 at the determined MICs. At 0, 1, 2, 4, 6, and 8 h after inoculation, samples of the suspension were spread onto YPD agar and incubated at 30°C for 3 days, and the colonies were counted. The assay was repeated in duplicate, and paired sample t tests were performed in GraphPad Prism v7.0.

C. glabrata = assay: Broth microdilution MIC; format: cell-based, Candida glabrata; conditions: ATCC 90030; CLSI M27-A2, YNB medium, 35°C, no visible growth after 48 h; triplicate
Description: as §1, §2, §4

[3] = system: capsule-induced or -suppressed C. neoformans H99 cells; assay: In vitro time course assay of capsule influence; format: cell-based, Cryptococcus neoformans; conditions: PMB at 12.5 μM
Description: (A) C. neoformans grown on capsule inducing RPMI 1640 agar medium (without L-glutamine and sodium bicarbonate) with incubation at 37°C in 5% CO2 for 3 days. Scale bar, 20 μm. (B) C. neoformans grown on capsule-suppressing media, YPD containing 1 M NaCl at 30°C in ambient air for 3 days. […] The data represent the means of two replicates, and the error bars represent the standard errors of the mean (SEM).
Capsule induction of strain H99 was achieved as described by Zhai et al. ([37]) with growth on RPMI 1640 (without L-glutamine and sodium bicarbonate) (Sigma, Australia) agar medium and incubation at 37°C in 5% CO2 and capsule suppression by growth on YPD containing 1 M NaCl at 30°C in ambient air. After 3 days, the cells from each culture were collected, washed twice with phosphate-buffered saline (PBS), and resuspended in PBS to avoid changes in the capsule at a density of 1,500 to 2,000 cells/ml. Cell suspensions were treated with test compounds at the determined MIC value. The compounds tested were PMB sulfate, octapeptin C4, and the octapeptin C4 alanine scan derivatives P1L, P1D, P4, P3, P4L, P4D, P5, P6, P7, and P8. At 0, 1, 2, 4, 6, and 8 h after inoculation, samples from each treatment were spread onto a YPD plate, followed by incubation at 30°C for 3 days, at which time the colonies were counted. The assay was repeated in duplicate, and paired sample t tests were performed using GraphPad Prism v7.0 (GraphPad Software, USA).

common fungal pathogens = assay: Broth microdilution MIC, panel of fungal pathogens; format: cell-based; conditions: highest concentration 100 μg/ml
Description: as §1
The MICs of the yeast strains for PMB, PME, and octapeptin C4 and its derivatives were determined in accordance with CLSI M27-A2 guidelines using YNB (Becton Dickinson, USA) medium supplemented with 10 mM ammonium sulfate and 2% glucose, a final inoculum concentration of 1.5 × 10^3 to 2.0 × 10^3 cells/ml, and incubation at 35°C for 72 h ([39]). […] The MICs for PMB, PME, and octapeptin C4 for A. fumigatus were determined in accordance with the CLSI M38-A2 guidelines ([40]) using synthetic RPMI 1640 medium (with glutamine, without bicarbonate and with phenol red; Life Technologies, USA). The final inoculum concentration was 0.4 × 10^4 to 5 × 10^4 cells/ml, with incubation at 35°C for 48 h. […] All assays were completed in triplicate. […]

Row | Compound | MICs against various Cryptococcus strains: H99 (C. neoformans H99) [µg/mL] | MICs against various Cryptococcus strains: ATCC 90113 (C. neoformans ATCC 90113) [µg/mL] | MICs against various Cryptococcus strains: MMRL 2651 (C. gattii MMRL 2651; 72 h) [µg/mL] | MICs against various Cryptococcus strains: H99 (cap59Δ) [1] [µg/mL] | further results
1 | CCCCCCC[C@@H](O)CC(=O)N[C@H](CCN)C(=O)N[C@H]1CCNC(=O)[C@H](CC(C)C)NC(=O)[C@H](CCN)NC(=O)[C@H](CCN)NC(=O)[C@H](CC(C)C)NC(=O)[C@H](C)NC(=O)[C@H](CCN)NC1=O [Compound P4L] ({Decanoyl(3R-OH)}-[dDab][Dab][Dab]AL[Dab][Dab]L; lactam 2-C) | 50.0 | 25.0 | 100 | 100.0 | –
2 | CCCCCCC[C@@H](O)CC(=O)N[C@H](CCN)C(=O)N[C@H]1CCNC(=O)[C@H](CC(C)C)NC(=O)[C@H](CCN)NC(=O)[C@H](CCN)NC(=O)[C@H](C)NC(=O)[C@@H](Cc2ccccc2)NC(=O)[C@H](CCN)NC1=O [Compound P5] ({Decanoyl(3R-OH)}-[dDab][Dab][Dab][dF]A[Dab][Dab]L; lactam 2-C) | 12.5 | 12.5 | 25.0 | 50.0 | –
3 | CCCCCCC[C@@H](O)CC(=O)N[C@H](CCN)C(=O)N[C@H]1CCNC(=O)[C@H](CC(C)C)NC(=O)[C@H](CCN)NC(=O)[C@H](C)NC(=O)[C@H](CC(C)C)NC(=O)[C@@H](Cc2ccccc2)NC(=O)[C@H](CCN)NC1=O [Compound P6] ({Decanoyl(3R-OH)}-[dDab][Dab][Dab][dF]LA[Dab]L; lactam 2-C) | 6.25 | 6.25 | 6.25 | 12.5 | –
4 | CCCCCCC[C@@H](O)CC(=O)N[C@H](CCN)C(=O)N[C@H]1CCNC(=O)[C@H](CC(C)C)NC(=O)[C@H](C)NC(=O)[C@H](CCN)NC(=O)[C@H](CC(C)C)NC(=O)[C@@H](Cc2ccccc2)NC(=O)[C@H](CCN)NC1=O [Compound P7] ({Decanoyl(3R-OH)}-[dDab][Dab][Dab][dF]L[Dab]AL; lactam 2-C) | 6.25 | 6.25 | – | 12.5 | MICs against various Cryptococcus strains: MMRL 2651 (C. gattii MMRL 2651; Table 2, C. gattii, triplicate, values consistent across replicates): 12.5 µg/mL
5 | CCCCCCC[C@@H](O)CC(=O)N[C@H](CCN)C(=O)N[C@H]1CCNC(=O)[C@H](C)NC(=O)[C@H](CCN)NC(=O)[C@H](CCN)NC(=O)[C@H](CC(C)C)NC(=O)[C@@H](Cc2ccccc2)NC(=O)[C@H](CCN)NC1=O [Compound P8] ({Decanoyl(3R-OH)}-[dDab][Dab][Dab][dF]L[Dab][Dab]A; lactam 2-C) | 50.0 | 6.25 | 50.0 | 100 | –
6 | polymyxin B [PMB] | – | – | – | – | MIC C. albicans (C. albicans): >100 µg/mL; MIC C. parapsilosis (C. parapsilosis): >100 µg/mL; MIC A. fumigatus (A. fumigatus): >100 µg/mL; effect of melanization on fungicidal activity [2]: no difference in activity; MIC C. neoformans H99 (C. neoformans H99): 12.5 µg/mL; MIC C. neoformans ATCC 90113 (C. neoformans ATCC 90113; Table 1, CLSI M27-A2, YNB medium, 35°C, no visible growth after 72 h, triplicate): 12.5 µg/mL; MIC C. gattii (C. gattii MMRL 2651; Table 1, MMRL 2651, CLSI M27-A2, YNB medium, 35°C, 72 h, triplicate): 25.0 µg/mL; MIC C. neoformans H99 (cap59Δ) ([1]; Table 1, CLSI M27-A2, YNB medium, 35°C, no visible growth after 72 h): 50 µg/mL; MIC C. glabrata (C. glabrata): >100 µg/mL; time to 50% reduction in viability, fungal cells with large capsule ([3]; H99, capsule induced on RPMI 1640 agar 37°C 5% CO2, cells in PBS, colony counts, two replicates): around 1 h; time to 50% reduction in viability, capsule suppressed fungal cells ([3]; H99, capsule suppressed on YPD with 1 M NaCl 30°C, relative to large capsule cells): five times longer; effect of capsule formation on fungicidal activity ([3]; H99, octapeptin C4 at 1.56 μM, 0-8 h, two replicates): enhanced the fungicidal effect
7 | polymyxin E [PME] | – | – | – | – | MIC C. albicans (C. albicans): >100 µg/mL; MIC C. parapsilosis (C. parapsilosis): >100 µg/mL; MIC A. fumigatus (A. fumigatus): >100 µg/mL; antifungal activity against any of the species analyzed (common fungal pathogens): did not show significant antifungal activity; MIC C. neoformans H99 (C. neoformans H99): 100 µg/mL; MIC C. glabrata (C. glabrata): >100 µg/mL
